According to patent US20240368163A1, “COMPOUNDS AND METHODS FOR MODULATING SPLICING” (REMIX THERAPEUTICS INC., priority 2021, published 2024):
Read-outs that look alike come from different tables or passages of the source.

Tests used:
Type in all cases: cell-based, human
HTT [1] = experiment: Splicing RT-qPCR assay, HTT mRNA canonical junction (CJ) and alternative junction (AJ); conditions: for AC50: increase in AJ mRNA
In short: (§1)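 A673 or K562 cells were treated 24 h at 37 °C with an 11-point 3-fold dilution series (top 10 uM final, DMSO ≤0.25%). Lysates underwent one-step RT-qPCR for canonical (CJ) and alternative (AJ) junctions; Ct normalized to GAPDH, GUSB or PPIA and DMSO control via 2^(−ΔΔCt), expressed as percentage response.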

MYB [2] = experiment: Splicing RT-qPCR assay, MYB mRNA canonical junction (CJ) and alternative junction (AJ); conditions: for AC50: increase in AJ mRNA
In short: as §1

SMN2 = experiment: Splicing RT-qPCR panel, SMN2 canonical junction (CJ) mRNA; conditions: RT-qPCR panel, canonical junction mRNA, compound concentration having 50% response in CJ decrease, read-out: SMN2 IC50 (decrease in CJ mRNA levels)
In short: as §1

Target C [3] = experiment: Splicing RT-qPCR panel, Target C canonical junction (CJ) mRNA; conditions: RT-qPCR panel, canonical junction mRNA, compound concentration having 50% response in CJ decrease, read-out: Target C IC50 (decrease in CJ mRNA levels)
In short: as §1

MYB [4] = experiment: HiBiT protein abundance assay, MYB; conditions: Table 13A, modified K562 cells
In short: (§2)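 HiBiT-tagged endogenous targets in K562 cells treated 24 h at 37° C. with 10-point 3-fold dilutions (top 10 μM, DMSO ≤0.25%). Luminescence read after lytic LgBiT detection; response normalised to unmodified-cell and DMSO controls, IC50 interpolated at 50% from four-parameter logistic fit.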

HTT [5] = experiment: HiBiT protein abundance assay, HTT; conditions: Table 13A, modified K562 cells
In short: as §2

Target C [6] = experiment: HiBiT protein abundance assay, Target C; conditions: Table 13A, modified K562 cells
In short: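 HiBiT knock-in K562-derived cells seeded at 10000/well and treated with 10-point 3-fold dilutions (top final 10 μM, ≤0.25% DMSO) for 24 h at 37 °C. Lytic HiBiT luminescence normalised to unmodified-cell and DMSO controls; IC50 from 4-parameter fit at 50% abundance.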

[7] = Homo sapiens, 24 h, decrease in CJ mRNA, A673 or K562 cells, 24 hours treatment, RT-qPCR, read-out: HTT CJ IC50
[8] = Homo sapiens, 24 h, A673 or K562 cells, 24 hours treatment, RT-qPCR
[9] = Homo sapiens, RT-qPCR panel, canonical junction mRNA, compound concentration having 50% response in CJ decrease, read-out: HTT IC50 (decrease in CJ mRNA levels)
[10] = Homo sapiens, 24 h, decrease in CJ mRNA, A673 or K562 cells, 24 hours treatment, RT-qPCR, read-out: MYB CJ IC50
[11] = Homo sapiens, RT-qPCR panel, canonical junction mRNA, compound concentration having 50% response in CJ decrease, read-out: MYB IC50 (decrease in CJ mRNA levels)

Compound	IC50 (HTT [1]; [7])	AC50 (HTT [1]; [8])	IC50 (HTT [1]; [9])	IC50 (MYB [2]; [10])	AC50 (MYB [2]; [8])	IC50 (MYB [2]; [11])	IC50 (SMN2; Homo sapiens)	IC50 (Target C [3]; Homo sapiens)	IC50 (MYB [4]; Homo sapiens, K562, 24 h)	IC50 (HTT [5]; Homo sapiens, K562, 24 h)	IC50 (Target C [6]; Homo sapiens, K562, 24 h)	IC50 (HTT [1]; RT-qPCR panel, canonical junction mRNA, compound concentration having 50% response in CJ decrease, read-out: HTT IC50 (decrease in CJ mRNA levels))	IC50 (HTT [1]; decrease in CJ mRNA, A673 or K562 cells, 24 hours treatment, RT-qPCR, read-out: HTT CJ IC50)	IC50 (MYB [2]; RT-qPCR panel, canonical junction mRNA, compound concentration having 50% response in CJ decrease, read-out: MYB IC50 (decrease in CJ mRNA levels))	IC50 (MYB [2]; decrease in CJ mRNA, A673 or K562 cells, 24 hours treatment, RT-qPCR, read-out: MYB CJ IC50)	IC50 (SMN2)	IC50 (Target C [3])	IC50 (MYB [4]; 24 hours)	IC50 (HTT [5]; 24 hours)	IC50 (Target C [6]; 24 hours)
c1nc2c(-c3cn[nH]c3)ccc(-c3ccc(O[C@H]4C[C@H]5COC[C@@H](C4)N5)nn3)c2s1 [Compound 358]	> 10 µM	> 10 µM	> 10 µM	1 to 10 µM	> 10 µM	1 to 10 µM	> 10 µM	> 10 µM	1 to 10 µM	> 10 µM	> 10 µM									
CCc1n[nH]c2c(-c3ccc(N(C)[C@@H]4C[C@H]5CC[C@@H](C4)N5)nn3)ccc(-c3cnn(C)n3)c12 [Compound 359, (1R,3S,5S)-N-{6-[3-ethyl-4-(2-methyl-1,2,3-triazol-4-yl)-1H-indazol-7-yl]pyridazin-3-yl}-N-methyl-8-azabicyclo[3.2.1]octan-3-amine]	> 10 µM	> 10 µM	> 10 µM	> 10 µM	> 10 µM	> 10 µM	> 10 µM	> 10 µM	1 to 10 µM	> 10 µM	> 10 µM									
c1nc2c(-c3cn[nH]c3)ccc(-c3ccc(N(C4CC4)C4C[C@H]5CC[C@@H](C4)N5)nn3)c2s1 (stereo partly drawn) [Compound 360, (exo)-N-cyclopropyl-N-{6-[4-(1H-pyrazol-4-yl)-1,3-benzothiazol-7-yl]pyridazin-3-yl}-8-azabicyclo [3.2.1] octan-3-amine]		< 0.1 µM	< 0.1 µM	0.1 to 1 µM	0.1 to 1 µM	0.1 to 1 µM	0.1 to 1 µM	0.1 to 1 µM	0.1 to 1 µM	0.1 to 1 µM	< 0.1 µM									
COc1cc(-c2ccc(-c3ccc(N(C)[C@@H]4C[C@H]5CC[C@@H](C4)N5)nn3)c3[nH]ncc23)ccn1 [Compound 364, (exo)-N-{6-[4-(2-methoxypyridin-4-yl)-1H-indazol-7-yl]pyridazin-3-yl}-N-methyl-8-azabicyclo[3.2.1]octan-3-amine]		< 0.1 µM	< 0.1 µM	0.1 to 1 µM	< 0.1 µM	0.1 to 1 µM	< 0.1 µM	0.1 to 1 µM	< 0.1 µM	< 0.1 µM	< 0.1 µM									
CN(c1ccc(-c2ccc(-c3ccc(=O)n(C)c3)c3cn[nH]c23)nn1)[C@@H]1C[C@H]2CC[C@@H](C1)N2 [Compound 365, 5-(7-{6-[(exo)-8-azabicyclo[3.2.1]octan-3-yl(methyl)amino]pyridazin-3-yl}-1H-indazol-4-yl)-1-methylpyridin-2-one]	1 to 10 µM	1 to 10 µM	1 to 10 µM	> 10 µM	> 10 µM	> 10 µM	1 to 10 µM	1 to 10 µM	1 to 10 µM	1 to 10 µM	1 to 10 µM									
FC1(F)CC2CC(Oc3ccc(-c4ccc(-c5cn[nH]c5)c5cn[nH]c45)nn3)CC1N2 (stereo not shown) [Compound 374, 7-[6-({6,6-difluoro-8-azabicyclo[3.2.1]octan-3-yl}oxy)pyridazin-3-yl]-4-(1H-pyrazol-4-yl)-1H-indazole]												> 10 µM	> 10 µM	> 10 µM	> 10 µM	> 10 µM	> 10 µM	> 10 µM	> 10 µM	> 10 µM
Cc1n[nH]c2c(-c3ccc(N(C)[C@@H]4C[C@H]5CC[C@@H](C4)N5)nn3)ccc(-c3cnn(C)n3)c12 [Compound 375, (1R,3S,5S)-N-methyl-N-{6-[3-methyl-4-(2-methyl-1,2,3-triazol-4-yl)-1H-indazol-7-yl]pyridazin-3-yl}-8-azabicyclo[3.2.1]octan-3-amine]	> 10 µM	> 10 µM	> 10 µM	> 10 µM	> 10 µM	> 10 µM	> 10 µM	> 10 µM	> 10 µM	> 10 µM	> 10 µM									
